Measured values published in US20250049922A1, “PHARMACEUTICAL COMPOSITION COMPRISING P-BORONOPHENYLALANINE” (priority 2021, published 2025).

Test: Solubilization of BPA in aqueous solutions, visual inspection of dissolution
Type: physicochemical
Details: RT, after 2 hours
Procedure: BPA (L-p-boronophenylalanine, Katchem, Praha, Czech Republic) was weighed to a set of test tubes, 15 mg each (72 μmol). At room temperature (RT), 0.5 ml each of various aqueous solutions as listed below, were added into parallel test tubes and mixed vigorously. After 2 hours, the results of visual inspection of BPA dissolution and pH were as follows: […]

visual inspection of BPA dissolution (15 mg BPA in 0.5 ml 0.12 M L-histidine (neutral pH)): no dissolution | visual inspection of BPA dissolution (15 mg BPA in 0.5 ml 0.5 M L-arginine (pH over 11)): partial dissolution | visual inspection of BPA dissolution (15 mg BPA in 0.5 ml 0.5 M L-serine (neutral pH)): no dissolution | visual inspection of BPA dissolution (15 mg BPA in 0.5 ml 0.5 M NaOH): complete dissolution | visual inspection of BPA dissolution (15 mg BPA in 0.5 ml 0.5 M Tris (Trizma base, pH over 10)): complete dissolution | visual inspection of BPA dissolution (15 mg BPA in 0.5 ml 0.5 M Tris-HCl (pH 8)): partial dissolution | visual inspection of BPA dissolution (15 mg BPA in 0.5 ml 0.5 M propylene glycol): no dissolution | visual inspection of BPA dissolution (15 mg BPA in 0.5 ml 0.5 M sodium-potassium tartrate (neutral pH)): partial dissolution | visual inspection of BPA dissolution (15 mg BPA in 0.5 ml 96% ethanol (v/v)): no dissolution | visual inspection of BPA dissolution (15 mg BPA in 0.5 ml deionized water): no dissolution | visual inspection of BPA dissolution (15 mg BPA, 0.25 ml 0.5 M NaOH followed by 0.5 ml 0.5 M L-serine): complete dissolution
Compound: N[C@@H](Cc1ccc(B(O)O)cc1)C(=O)O [BPA, L-p-boronophenylalanine]
